Results published in ChEMBL document CHEMBL1201862, “PubChem BioAssay data set” (2004).
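The compound was tested at five concentrations on cells cultured in 96-well plates, with a 48-hour exposure period. The concentration for 50% growth inhibition is given as GI50.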 Activity calls are given as the source filed them. No stated cut-off is given here; in the data, active = GI50 up to about 1.1 µM and inactive = higher.

What was measured:
Experiment in all cases: NCI-60 cell line screen, 48 h
[1] = tested on: EKVX
[2] = tested on: OVCAR-8
[3] = tested on: Hs-578T
[4] = tested on: UACC-62
[5] = tested on: NCI-H522
[6] = tested on: SF-295
[7] = tested on: SN12C
[8] = tested on: UACC-257
[9] = tested on: MDA-N
[10] = tested on: M14
[11] = tested on: OVCAR-3
[12] = tested on: CAKI-1
[13] = tested on: BT-549
[14] = tested on: HL-60
[15] = tested on: ACHN
[16] = tested on: DU-145
[17] = tested on: HOP-62
[18] = tested on: SK-OV-3
[19] = tested on: UO-31
[20] = tested on: SR

Measured: GI50

CNc1nc(C(N)=O)c(N)s1
inactive: [1] > 100 µM | [2] > 100 µM | [3] > 100 µM | [4] > 100 µM | [5] > 100 µM | [6] > 100 µM | [7] > 100 µM | [8] > 100 µM | [9] > 100 µM | [10] > 100 µM | [11] > 100 µM | [12] > 100 µM | [13] > 100 µM | [14] > 100 µM | [15] > 100 µM | [16] > 100 µM | [17] > 100 µM | [18] > 100 µM | [19] > 100 µM

Cc1ccc2nc3c(=O)[nH]c(=O)nc-3n(C)c2c1C
inactive: [1] > 100 µM | [2] > 100 µM | [3] 12.1 µM | [4] > 100 µM | [5] > 100 µM | [6] > 100 µM | [7] > 100 µM | [8] > 100 µM | [9] > 100 µM | [10] > 100 µM | [11] > 100 µM | [12] > 100 µM | [13] > 100 µM | [14] > 100 µM | [15] > 100 µM | [16] > 100 µM | [17] > 100 µM | [18] > 100 µM | [19] > 100 µM

CN(C)CCO/N=C1/C=C2CC[C@H]3[C@@H]4CC[C@H](O)[C@@]4(C)CC[C@@H]3[C@@]2(C)CC1
inactive: [1] 15.6 µM | [2] 13.9 µM | [3] 4.91 µM | [4] 10.9 µM | [5] 1.67 µM | [6] 13.9 µM | [7] 11.7 µM | [8] 12.9 µM | [9] 3.72 µM | [10] 8.26 µM | [11] 16.6 µM | [12] 31.9 µM | [13] 2.61 µM | [15] 15.4 µM | [16] 16.7 µM | [17] 12.1 µM | [18] 8.67 µM | [19] 12.3 µM | [20] 5.55 µM

COc1ccc(OC)c2c(Nc3ccc(S(=O)(=O)O)c4cc(S(=O)(=O)O)cc(S(=O)(=O)O)c34)cc(C)nc12
inactive: [1] > 100 µM | [2] > 100 µM | [3] > 100 µM | [4] > 100 µM | [5] > 100 µM | [6] > 100 µM | [7] > 100 µM | [8] > 100 µM | [9] > 100 µM | [10] > 100 µM | [11] > 100 µM | [12] > 100 µM | [13] > 100 µM | [14] > 100 µM | [15] > 100 µM | [16] > 100 µM | [17] > 100 µM | [18] > 100 µM | [19] > 100 µM

O=Cc1ccc(-c2cccs2)s1
inactive: [1] 79.4 µM | [2] > 100 µM | [3] 34.1 µM | [4] 1.16 µM | [5] > 100 µM | [6] > 100 µM | [7] > 100 µM | [8] 6.62 µM | [9] > 100 µM | [10] > 100 µM | [11] 12.4 µM | [12] 13.8 µM | [13] 51.3 µM | [14] 49.3 µM | [15] > 100 µM | [16] > 100 µM | [17] 67.6 µM | [18] > 100 µM | [19] 64 µM | [20] 77.4 µM

CN(C)CCCNc1c2ccccc2[n+]([O-])c2ccccc12
inactive: [1] 40.6 µM | [2] 41.9 µM | [3] 22.6 µM | [4] > 100 µM | [5] 28.2 µM | [6] 54 µM | [7] 46.1 µM | [8] 56.8 µM | [9] 68.7 µM | [10] > 100 µM | [11] 66.8 µM | [12] 49.4 µM | [13] 19.1 µM | [14] 51.8 µM | [15] 49.1 µM | [16] > 100 µM | [17] 43.5 µM | [18] 82.6 µM | [19] 34.5 µM

O=C(NC1=C(Cl)C(=O)c2ccccc2C1=O)c1ccccc1
inactive: [1] > 100 µM | [2] 43.2 µM | [3] 69 µM | [4] 24.1 µM | [5] 23.9 µM | [6] 36 µM | [7] 38.1 µM | [8] > 10 µM | [9] 5.04 µM | [10] 50.8 µM | [11] 19.1 µM | [13] 19.9 µM | [14] 34.8 µM | [15] 20.8 µM | [16] 55.1 µM | [17] 85.3 µM | [20] 38.4 µM
